Tests used:
Assay type in all cases: in vivo, mice
CGRP = CGRP immunofluorescence in dorsal horn after morphine treatment and withdrawal; details: repeated morphine exposure (7 escalating i.p. doses)
Experimental: (§1) Mice were anesthetized and perfused transcardially with cold saline followed by ice-cold 4% paraformaldehyde solution. The lumbar segment of the SC was dissected out and post-fixed at 4° C. for 4 h with the paraformaldehyde solution, then the Histo Prep (Fisher Scientific, Fair Lawn, N.J.) embedded blocks were sectioned on a Leica CM1850 cryostat (Leica Microsystems, Germany). Sections (10 μm) were thaw-mounted on to glass slides and allowed to air dry. The immunofluorescence staining was performed as previously described (Kerr et al, 2000). Endogenous peroxidases were blocked by incubating tissue sections with 0.3% hydrogen peroxide for 30 min and 3% normal goat serum for 20 min. […]
(§2) The morphologic details of the immunofluorescence staining on SC were studied under a fluorescence microscope (Olympus BX51WI; Olympus America Inc., Melville, N.Y.). […] Fos-immunoreactive neurons were counted in blind fashion. The number of Fos-like immunoreactive neurons in DH (laminae I-VI) was determined by averaging the counts made in 20 SC sections (L4-L5) for each group. To obtain quantitative measurements of CGRP immunofluorescence, 15-20 fields covering the entire DH in each group were evaluated and photographed at the same exposure time to generate the raw data. Fluorescence intensities of the different groups were analyzed using MicroSuite image analysis software (Olympus America Inc.). […]

EphB1 receptor protein = experiment: Western blot of EphB1 receptor protein in spinal cord; details: SC
Experimental: (§3) Western blot analysis was used to detect expression of EphB receptors, ephrinBs, and phosphorylated NR2B, ERK and CREB proteins in the SC. A total of 108 mice were used for Western blotting experiments (SC from 4 mice were pooled for each sample and each group consisted of 3 samples). The lumbar segments of the SC were quickly extracted and immediately frozen in liquid nitrogen, and stored at −80° C. The procedure used to quantify temporal changes in protein levels was similar to that previously described (Bundesen et al, 2003). In brief, protein precipitation procedures in conjunction with Western blots were used to detect protein bands with an enhanced chemiluminescent (ECL) detection procedure. Sequential precipitation procedures were used on tissue samples that were lysed in ice-cold (4° C.) lysis buffer [50 mM Tris, pH 7.5, containing 150 mM NaCl, 1% Triton X-100, 0.5% deoxycholate, 0.1% SDS, 0.2 mM EDTA, 10 mM NaF, […], 0.4 mM 4-(2-aminoethyl)-benzenesulfonyl fluoride, and 1 mM sodium orthovanadate. The protein concentration of the lysates was estimated using the method of BCA (Pierce, Ill.), and the total protein content between samples was equalized. […] Data were analyzed with the Molecular Imager (Gel Doc™ XR, 170-8170) and the associated software Quantity One-4.6.5 (Bio-Rad Laboratories, Hercules, Calif.).

p-NR2B = experiment: Western blot of phosphorylated NR2B in spinal cord; details: escalated morphine treatment; SC
Experimental: as §3

p-ERK = experiment: Western blot of phosphorylated ERK in spinal cord; details: escalated morphine treatment; SC
Experimental: as §3

p-CREB = experiment: Western blot of phosphorylated CREB in spinal cord; details: escalated morphine treatment; SC
Experimental: as §3

ephrinB1 = experiment: Western blot of ephrinB1 in spinal cord; details: following escalating morphine treatment or morphine withdrawal; SC
Experimental: as §3

ephrinB2 = experiment: Western blot of ephrinB2 in spinal cord; details: following escalating morphine treatment or morphine withdrawal; SC
Experimental: as §3

[1] = system: phosphotyrosine (PY99) proteins; experiment: Western blot of phosphotyrosine (PY99) proteins in spinal cord; details: following escalating morphine treatment or morphine withdrawal; SC
Experimental: as §3

c-Fos = c-Fos immunostaining in dorsal horn during morphine withdrawal; details: naloxone challenge after escalating morphine treatment
Experimental: as §1, §2

Row | SMILES | expression of CGRP throughout the DH region of the SC (CGRP) | expression of EphB1 receptor protein (EphB1 receptor protein; after escalating morphine treatment) | level of p-NR2B protein (p-NR2B) | level of p-ERK protein (p-ERK) | level of p-CREB protein (p-CREB) | expression of ephrinB1 (ephrinB1) | expression of ephrinB2 (ephrinB2) | expression of phosphotyrosine (PY99) proteins [1] | number of Fos-like immunoreactive neurons in the dorsal horn (c-Fos) | morphine-induced increase in EphB1 receptor protein expression (EphB1 receptor protein; naloxone treatment after escalating morphine)
1 | CN1CC[C@]23c4c5ccc(O)c4O[C@H]2[C@@H](O)C=C[C@H]3[C@H]1C5 [morphine] | greatly increased | significantly increased | significant increases | significant increases | significant increases | failed to show significant changes | failed to show significant changes | failed to show significant changes |  | 
2 | C=CCN1CC[C@]23c4c5ccc(O)c4O[C@H]2C(=O)CC[C@@]3(O)[C@H]1C5 [naloxone] |  |  |  |  |  |  |  |  | significantly increased | did not significantly alter

— patent US20100111972A1, “Method for preventing or treating opiate tolerance and dependence” (priority 2008, published 2010)
